The test system of experiment [1] is A2780 cells. Nature of the experiment: SRB assay on A2780 cells. Format: cell-based. The following applies: maximal inhibition; 48 h treatment; maximum concentration 100 µM. As to the method:
For MTT assays, 4 × 10^3 A2780 cells were plated into 96-well plates, and for SRB assays, 1.5 × 10^3 A2780 cells were plated into 96-well plates. Cells were treated with the compounds in the concentrations indicated for either 4 h for an MTT assay or for 48 h for an SRB assay. Data are represented as average ± SD, from four biological replicates, with the exception of the MTT dataset of Ir-2b and the SRB datasets of 2b, Ru/Ir-2b, and Ir-3a, which were derived from three biological replicates. Individual assays were performed in duplicate. Values were normalized for vehicle-treated cells, and the absorbance for vehicle-treated cells equals 1. Data are represented as fold change compared to vehicle-treated controls. Normality was assessed using the D’Agostino–Pearson test. Statistical significance was assessed using a two-way ANOVA test followed by Tukey’s post hoc test. For better visibility, normality, transformations, statistical tests, and p values are presented in an MS Excel sheet at https://figshare.com/s/3a0aa60b66f3f746f41e. Color code: black—free ligand (2a,b or 3a), khaki—ruthenium complex (Ru-2a,b or Ru-3a), green—iridium complex (Ir-2a,b or Ir-3a).  FIGURE 7 The ruthenium, osmium, and iridium complexes of ligands 4a, 4b, and 5a are cytostatic on ovarian cancer models with a good therapeutic index. For SRB assays, 1.5 × 10^3 A2780 cells, 1.5 × 10^3 ID8 cells, or 4 × 10^3 primary fibroblasts were plated into 96-well plates. Cells were treated with the compounds in the concentrations indicated for 48 h. Data are represented as average ± SD, from four biological replicates on A2780 and human primary fibroblasts, except in the case of Os complexes, where experiments were performed in three biological replicates. ID8 cells were assessed in three biological replicates. Individual assays were performed in duplicate. Values were normalized for vehicle-treated cells, and the absorbance for vehicle-treated cells equals 1. Normality was assessed using the D’Agostino–Pearson test. Statistical significance was assessed using a two-way ANOVA test followed by Tukey’s post hoc test. For better visibility, normality, transformations, statistical tests, and p values are presented in an MS Excel sheet at https://figshare.com/s/3a0aa60b66f3f746f41e. Color code: black—free ligand (4a,b or 5a), khaki—ruthenium complex (Ru-4a,b), blue—osmium complex (Os-4a,b or Os-5a), green—iridium complex (Ir-4a,b), and red—rhodium complex (Rh-4a,b). An SRB assay measures protein content of cells in correlation with the cell number in an assay well and can therefore be used to assess cell proliferation or long-term cytostasis ([Skehan et al., 1990]). Cells were seeded into 96-well plates the day before the treatment for the assay. Cells were treated with the various compounds for 48 h. Then, the medium was removed, and cells were fixed with 10% trichloroacetic acid. Fixed cells were washed in distilled water three times, followed by staining with SRB (0.4 m/V% dissolved in 1% acetic acid) for 10 min. Stained cells were washed in 1% acetic acid five times; the acetic acid was removed, and the cells were left to dry. Protein-bound SRB was released by adding 100 µL of 10 mM Tris base. Plates were measured in a plate photometer (Thermo Scientific Multiscan GO spectrophotometer, Waltham, MA, United States) at 540 nm. Certain wells were designated to contain vehicle-treated cells on each plate. […] Statistical analysis was performed using version 8.0.1 of GraphPad Prism. Values were tested for normal distribution using the D’Agostino–Pearson or Shapiro–Wilk normality tests. When necessary, values were log-normalized or normalized using the Box–Cox or two-step normalization method ([Box and Cox, 1964]), as indicated in the MS Excel file listing the values at https://figshare.com/s/3a0aa60b66f3f746f41e. […]
(In general: In SRB staining, fixed cells bind dye roughly in proportion to their protein.)

Experiment [2] concerns human primary dermal fibroblasts. Nature of the experiment: MTT reduction assay on human primary dermal fibroblasts. The format is cell-based. The following applies: maximal inhibition; 4 h treatment; maximum concentration 100 µM. The method, then: FIGURE 5 The ruthenium, osmium, and iridium complexes of ligands 4a, 4b, and 5a decrease MTT reduction. For MTT assays, 4 × 10^3 A2780 cells, 3 × 10^3 ID8 cells, or 6 × 10^3 human primary fibroblasts were plated into 96-well plates. Cells were treated with the compounds in the concentrations indicated for 4 h. Data are represented as average ± SD, from four biological replicates on A2780, and from three biological replicates on ID8 and human primary fibroblasts. For the datasets of 5a and Os-5a on human primary fibroblasts, the data represent four biological replicates. Individual assays were performed in duplicate. Values were normalized for vehicle-treated cells, and the absorbance for vehicle-treated cells equals 1. Normality was assessed using the D'Agostino-Pearson test. Statistical significance was assessed using a two-way ANOVA test followed by Tukey's post hoc test. For better visibility, normality, transformations, statistical tests, and p values are presented in an MS Excel sheet at https://figshare.com/s/3a0aa60b66f3f746f41e. Color code: black-free ligand (4a,b or 5a), khaki-ruthenium complex (Ru-4a,b), green-iridium complex (Ir-4a,b), blue-osmium complex (Os-4a,b or Os-5a), and red-rhodium complex (Rh-4a,b). An MTT reduction assay measures the activity of mitochondrial complex I and can be used to detect toxicity ([[…] et al., 2016]). The assay was performed in a manner similar to that described by [[…] et al. (2023b)]. Briefly, cells were plated into 96-well plates the day before the assay. Cells were treated with the compounds for 4 h; then, MTT was added to a 0.5 mg/mL final concentration, and cells were incubated at 37°C in a cell incubator for 40-60 min, as a function of the cell line being assessed. The culture medium was removed, the reduced MTT dye was dissolved in dimethylsulfoxide, and plates were measured in a plate photometer (Thermo Scientific Multiscan GO spectrophotometer, Waltham, MA, United States) at 540 nm. […] In calculations, the readings for these wells were considered to 1, and all readings were expressed relative to these values. […]

`O=C(OC[C@H]1O[C@H](n2cc(-c3ccccn3)nn2)[C@H](OC(=O)c2ccccc2)[C@@H](OC(=O)c2ccccc2)[C@@H]1OC(=O)c1ccccc1)c1ccccc1` [Complex 4a, 1-(2’,3’,4’,6’-Tetra-O-benzoyl-α-D-glucopyranosyl)-4-(pyridin-2-yl)-1,2,3-triazole]: the “A2780 SRB max %” value in experiment [1] is 29.51%. Further, the “Fibroblast MTT max %” value in experiment [2] is reported as 0%.

On to `OC[C@H]1O[C@H](n2cc(-c3ccccn3)nn2)[C@H](O)[C@@H](O)[C@@H]1O` [Complex 3a, 1-(α-D-Glucopyranosyl)-4-(pyridin-2-yl)-1,2,3-triazole], for which the “A2780 SRB max %” value in experiment [1] is on record as 0%.

In the case of `O=C(OC[C@H]1O[C@H](n2cc(-c3ccc4ccccc4n3)nn2)[C@H](OC(=O)c2ccccc2)[C@@H](OC(=O)c2ccccc2)[C@@H]1OC(=O)c1ccccc1)c1ccccc1` [Complex 4b, 1-(2’,3’,4’,6’-Tetra-O-benzoyl-α-D-glucopyranosyl)-4-(quinolin-2-yl)-1,2,3-triazole], in experiment [1], the “A2780 SRB max %” value came to 0%. Further, the “Fibroblast MTT max %” value in experiment [2] is on record as 0%.

On to `CCCCC(=O)OC[C@H]1O[C@H](n2cc(-c3ccccn3)nn2)[C@H](OC(=O)CCCC)[C@@H](OC(=O)CCCC)[C@@H]1OC(=O)CCCC` [Complex 5a, 1-(2’,3’,4’,6’-Tetra-O-pentanoyl-α-D-glucopyranosyl)-4-(pyridin-2-yl)-1,2,3-triazole], for which the “A2780 SRB max %” value in experiment [1] is given as 33.92%. The “Fibroblast MTT max %” value in experiment [2] was found to be 15.72%.

The values above are taken from paper PMC12434071, “Platinum-group metal half-sandwich complexes of 1-(α-D-glucopyranosyl)-4-hetaryl-1,2,3-triazoles: synthesis, solution equilibrium studies, and investigation of their anticancer and antimicrobial activities” (Frontiers in Chemistry, 2025).
